Experimental data: patent publication US7728038B2, “Methods for chelation therapy” (priority 2004, dated 2010)
Marks after values point to notes of the source that are not given here.

Experiments:
horse spleen ferritin = target: T1, horse spleen ferritin (Equus caballus, UniProt P02791+Q8MIP0); assay: Removal of iron from ferritin by incubation with chelators; type: biochemical; settings: Tris buffer 25 mM, pH 7.5, 37° C., chelator 0.47 mM, DFO 0.19 mM, up to 72 h
T1 construct: incubation of horse spleen ferritin with chelators 1a and 1b; from tissue; host or cells: horse spleen
T1 sequence (P02791 2-175 limits assumed): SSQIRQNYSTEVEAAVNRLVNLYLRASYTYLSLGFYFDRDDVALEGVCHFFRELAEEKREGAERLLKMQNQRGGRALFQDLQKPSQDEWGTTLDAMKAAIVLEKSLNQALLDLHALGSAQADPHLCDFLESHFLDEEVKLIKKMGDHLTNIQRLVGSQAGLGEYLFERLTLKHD
T1 sequence (Q8MIP0 whole entry): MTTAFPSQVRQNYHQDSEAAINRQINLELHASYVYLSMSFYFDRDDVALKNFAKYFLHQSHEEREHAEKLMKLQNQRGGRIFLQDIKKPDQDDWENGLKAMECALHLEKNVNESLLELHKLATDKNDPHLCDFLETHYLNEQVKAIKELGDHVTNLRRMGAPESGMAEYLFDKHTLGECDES
Method: These chelators reacted with iron (III) forming purple complexes (UV: λmax=456 nm (ε4.6×10^3) for 1a; λmax=459 nm (λ4.45×10^3) for 1b) which have the chelator iron stoichiometry of 3:1. […] The chelators can also react with Al and Zn forming white powder complexes, and with Cu forming a green colored complex. These complexes were very soluble in water. […] The removal of iron from ferritin was determined by incubation of horse spleen ferritin with chelators 1a and 1b in Tris buffer (25 mM, pH 7.5, 37° C.) at a concentration of 0.47 mM, using DFO (0.19 mM) as a reference chelator similar to that described by Kontoghiorghes. The concentrations of the iron complex were measured spectrophotometrically from λmax values. The kinetics of iron release were investigated for a of period up to 72 h.

ovariectomized (Ovx) rat [1] = assay: EPR free iron (BC) and LLOFR (NC) of humeral bone, OVX rats treated with estradiol; type: in vivo; settings: 17b-estradiol 10 μg/kg IP three times a week, 60 days post-surgery
Method: EPR-osseous tissue sample preparation and measurement: Samples of human femoral cortical bone preserved in 70% alcohol were initially crushed into large pieces (<1 mm) using a mortar and pestle. The granules were defatted with 10 changes of acetone and dried at 60° C. The samples then were further crushed and sieved to obtain a 250-600 micrometer fraction. The EPR measurement of approximately 100 mg of sample were made at 24° C. with values for g-factors of 2.00503±0.00019 (NC) and 2.00541±0.00085 (BC) and with widths of 0.916±0.0465 mT (NC) and 2.5 mT (BC) following a modification of known protocols.^74-75 A Bruker 300E spectrometer at 9.7 GHz was used for date collection.
Humeral bones from four groups of 3 or 4 rats (Sprague-Dawley, Charley River) each were evaluated. The baseline group consisting of 3 normal rats were sacrificed at six months of age using Ketamine-Xylazine anesthesia. The other three groups (4 rats each) were sham ovariectomized (SHAM) (one group) or ovariectomized (OVX) (two groups) at the same age. Bilateral ovariectomy was performed using a dorsal approach under aseptic conditions with Ketamine-Xylazine anesthesia.^76 One group of OVX animals was treated by estradiol IP injection with 10 μg/kg body weight of 17b-estradiol in benzyl alcohol/corn oil solution (5:95, vol/vol). The injections were three times a week. […]

[2] = 241-Am retention in whole body and skeletal tissue of rats after GL22 treatment; type: in vivo; settings: GL22 50 μmol/rat/day in food for 90 days
Method: 12 Male Sprague-Dawley rats from Simonsen Laboratories (Gilroy, Calif.) at about 80 days of age were given an intravenous injection of 241-Am-citrate in a total volume of 0.2 mL. For chelator treatment, the GL22 was dissolved in saline and the pH was adjusted to 7.5 with NaOH. Fourteen days after administration of 241-Am-citrate, a chelator food ration was started at 50 μmol/rat/day for 90 days orally, while the same food ration without chelator was given to controls. 50 μmol of chelator was added to the daily food ration (25 g). The total body retention of 241-Am was measured using a whole body-counter and after necropsy the skeletal tissues were counted for 241-Am content. The experimental protocol was described in an earlier publication. […] The same results have also been found for 239-Pu. Moreover, the excretion of iron from iron overloaded male rats that were treated by chelator was tested. The same rats as above at the age of 180 days were given 10 mg of iron as iron-dextran (Sigma, St. Louis, Mo.) subcutaneously every 3 days for 6 weeks to induce iron overloading. Then, a low iron diet (Teklab diet #80396) was given to the rats for 2 weeks as the baseline iron excretion reached plateau levels, which was determined by GFAA measurement of iron in feces. The chelator treated rats were given 20 g of low iron diet with 30 μmol of GL22 and control rats were given just 20 g of low iron diet each day for 14 days. Feces were collected every day for determination of iron excretion. The samples of feces were placed in glazed porcelain crucibles, dried at 100° C. overnight and ashed in a muffle furnace at 550° C. for 18 h. The ashed feces were dissolved in 4 mL of 3 N HCl and quantitatively transferred to a volumetric flask. The crucibles were then rinsed twice with 5 ml of 0.36 N HCl. The concentration of iron was determined by GFAA spectrophotometry (Perkin Elmer). After 14 days of chelation treatment by oral administration there were significant increases in the amounts of iron found in the feces when compared with controls (Table 7).

[3] = test system: heavy metal overload animals; settings: in vivo; cited from earlier work
iron overload rats = assay: Iron excretion in feces of iron overload rats treated by GL22 (GFAA); type: in vivo, rat; settings: 30 μmol GL22 in low iron diet each day for 14 days
Method: 12 Male Sprague-Dawley rats from Simonsen Laboratories (Gilroy, Calif.) at about 80 days of age were given an intravenous injection of 241-Am-citrate in a total volume of 0.2 mL. For chelator treatment, the GL22 was dissolved in saline and the pH was adjusted to 7.5 with NaOH. Fourteen days after administration of 241-Am-citrate, a chelator food ration was started at 50 μmol/rat/day for 90 days orally, while the same food ration without chelator was given to controls. 50 μmol of chelator was added to the daily food ration (25 g). The total body retention of 241-Am was measured using a whole body-counter and after necropsy the skeletal tissues were counted for 241-Am content. The experimental protocol was described in an earlier publication. […] The same results have also been found for 239-Pu. Moreover, the excretion of iron from iron overloaded male rats that were treated by chelator was tested. […] Then, a low iron diet (Teklab diet #80396) was given to the rats for 2 weeks as the baseline iron excretion reached plateau levels, which was determined by GFAA measurement of iron in feces. […] The ashed feces were dissolved in 4 mL of 3 N HCl and quantitatively transferred to a volumetric flask. […] The concentration of iron was determined by GFAA spectrophotometry (Perkin Elmer). […]

ovariectomized (Ovx) rat [4] = assay: Free iron contents in humeral cortical bone of Ovx rats by EPR after oral chelation treatment; type: in vivo; settings: chelator 100 μmole/kg oral gavage three times a week for 9 weeks, FIG. 1
Method: Animal and treatment: Three-month-old female Sprague-Dawley rats (Charles River Laboratory) were obtained and housed with a 12 h light-dark cycle at constant room temperature (24° C.) and humidity. The rats were fed standard rat chow (#8640 Harland Teklad, Madison, Wis.) and water ad libitum. When aged 6 month, the rats were divided into four groups. One group was sacrificed as baseline controls at the beginning of the experiment. The remaining groups were sham operated (one group) or bilaterally ovariectomized (two groups) via a dorsal approach. Chelation treatment started from the second day after surgery and was given three times a week for 9 weeks. The chelator (1-N-Docosyltriethylenetetraminepentaacetic acid, GL22) was dissolved in saline (pH 7.5) and was administrated by oral gavage (100 μmole/kg), while control groups including the sham and Ovx operated animals received vehicle only in the same manner. […]
Iron measurement: Total iron contents of femoral cortical bones of aged women were assessed using ICP-OES performed by Galbraith Laboratories, Inc. (Knoxville, Tenn.). […] Each sample of about 100 mg was mixed with acid solution, microwave digested and measured. […]

ovariectomized (Ovx) rat [5] = assay: EPR free iron (BC) and LLOFR (NC) of humeral bone, OVX rats treated with GL22; type: in vivo; settings: GL22 30 μmol/kg orally three times a week, 60 days post-surgery
Method: (§1) In another experiment, four groups of 3 or 4 rats (Sprague-Dawley, Charley River) each were used. The baseline group consisted of 3 normal rats, which were sacrificed at six months of age. The humeral bones were collected for EPR free iron and LLOFR measurements and the whole body bone mineral density (BMD) was assessed by Dual x-ray absorptiometry (Hologic QDR1000 Plus) before necropsy. The other three groups were sham ovariectomized (one group) or ovariectomized (two groups) at the same age. The operation (a dorsal approach of bilateral ovariectomy) was under aseptic conditions with Ketamine-Xylazine anesthesia. One group of OVX animals was treated by chelation therapy with 30 μmol/kg body weight of GL22 in saline solution (pH 7.5). The GL22 was orally administered by intubation with a blunt-ended stainless steel needle three times a week. The other two groups received the saline solution without chelator by the same manner. All groups were sacrificed at 60 days post-surgery to collect humeral bones for EPR free iron and LLOFR measurements. Before the termination, whole body BMD was measured.

ovariectomized (Ovx) rat [6] = assay: Micro-CT morphometry of lumbar vertebra cancellous bone in chelator-treated Ovx rats; type: in vivo
Method: (§2) Animal and treatment: Three-month-old female Sprague-Dawley rats (Charles River Laboratory) were obtained and housed with a 12 h light-dark cycle at constant room temperature (24° C.) and humidity. The rats were fed standard rat chow (#8640 Harland Teklad, Madison, Wis.) and water ad libitum. When aged 6 month, the rats were divided into four groups. One group was sacrificed as baseline controls at the beginning of the experiment. The remaining groups were sham operated (one group) or bilaterally ovariectomized (two groups) via a dorsal approach. Chelation treatment started from the second day after surgery and was given three times a week for 9 weeks. The chelator (1-N-Docosyltriethylenetetraminepentaacetic acid, GL22) was dissolved in saline (pH 7.5) and was administrated by oral gavage (100 μmole/kg), while control groups including the sham and Ovx operated animals received vehicle only in the same manner.
(§3) Tissue preparation and analyses: Humeral bone was fixed in 70% ethanol for measurement of tissue iron by EPR. Lumbar vertebrae were first fixed in 10% phosphate buffered formalin for 24 hours, then dehydrated in ascending concentrations of ethanol and embedded in methyl methacrylate. The blocks were trimmed for peripheral computed tomography (pQCT), micro-computed tomography (μ-CT) and later prepared for histomorphometric studies.
μ-CT measurement: Lumbar vertebra were scanned in all three dimensions with a high-resolution μ-CT (10 μm) (Scanco μCT-40, Scanco Medical, Bassersdorf, Switzerland). The complete third vertebral bodies were scanned with 600 slices, each containing 2048×2048 pixels. The trabecular and cortical part of the bodies were separated with semi-automatically drawn contours. The resulting grey-sclae images were segmented using a low-pass filter to remove noice and a fixed threshold to extract the mineralized bone phase. From the binary images, structural indices were assessed with three-dimensional techniques without model-assumptions of the appearance of trabecular bone and were calculated by measuring three-dimensional distances directly in the travecular network and taking the mean over all voxels. The region of interest was travecular bone in the lumbar vertebral body, excluding the prmary songiosa area, 0.5 mm from the growth plate.

ovariectomized (Ovx) rat [7] = assay: Whole body BMD by dual x-ray absorptiometry, OVX rats treated with GL22; type: in vivo
Method: as §1

ovariectomized (Ovx) rat [8] = assay: pQCT densitometry of lumbar vertebra BMD in chelator-treated Ovx rats; type: in vivo
Method: as §2, §3
pQCT densitometry: The L3 vertebra bodies were examined by pQCT densitometry (Norland Stratec XCT 960A, Birkenfeld, Germany) to determine bone mineral density (BMD) for the part from the middle point to the caudal end, excluding the primary spongiosa. A scout scan of the vertebra was performed, and on the scout view, a reference line was manually placed such that the cross-sectional slice passed through at a distance of 1, 2, 3 and 4 mm from caudal end of lumbar vertebra body. The voxel size was 196 μm. Contour mode 2, Peel mode 20, Cortical mode 2 and threshold 570 for cortical bone was chosen for the analysis. The mean BMD for all of the measured slices was then calculated.

[9] = n-octanol/Tri-HCl buffer system; cited from earlier work
[10] = chelator-treated Ovx rats, μ-CT
[11] = Ovx rats treated with chelator, lumbar vertebra, pQCT

Cc1c(O)c(=O)ccn1COCCO [1a]
removing iron from ferritin, compared with DFO (horse spleen ferritin): more effective than DFO

CCc1c(O)c(=O)ccn1COCCO [1b]
removing iron from ferritin, compared with DFO (horse spleen ferritin): more effective than DFO

C[C@]12CC[C@@H]3c4ccc(O)cc4CC[C@H]3[C@@H]1CC[C@@H]2O [Estrogen, 17b-estradiol]
BC (free iron) of EPR signal of humeral bone (ovariectomized (Ovx) rat [1]): 214.3 ± 11.1^b a.u./mg
NC (LLOFR) of EPR signal of humeral bone (ovariectomized (Ovx) rat [1]): 1357.5 ± 101.4^b a.u./mg

CCCCCCCCCCCCCCCCCCCCCCN(CCN(CCN(CCN(CC(=O)O)CC(=O)O)CC(=O)O)CC(=O)O)CC(=O)O [GL22, 1-N-Docosyltriethylenetetraminepentaacetic acid]
241-Am retention, Femur [2]: 4.06 ± 0.08%
241-Am retention, Humerus [2]: 3.97 ± 0.09%
241-Am retention, Vertebral body [2]: 4.05 ± 0.23%
241-Am retention, Whole body ([2]; started 14 days after 241-Am-citrate iv): 50.8 ± 0.7%
toxicity in treated heavy metal overload animals [3]: without any indications of toxicity
Excreted Fe from feces (iron overload rats): 1084.62 ± 88.54
iron content in bone, percent of that of Ovx rats without chelation treatment (ovariectomized (Ovx) rat [4]): 59.8%
iron content in bone, percent of that of sham controls (ovariectomized (Ovx) rat [4]): 73.0%
BC (free iron) in bone (ovariectomized (Ovx) rat [5]): 202.7 ± 32.9^b a.u./mg
NC (LLOFR) in bone (ovariectomized (Ovx) rat [5]): 1083 ± 127^b a.u./mg
BV/TV compared with sham control (ovariectomized (Ovx) rat [6]; Ovx rats treated with chelator): 85.2%
Tr. Sp. increase compared with sham control (ovariectomized (Ovx) rat [6]; Ovx rats treated with chelator): 8%
bone volume to tissue volume (BV/TV), higher than untreated Ovx rats (ovariectomized (Ovx) rat [6]; [10]): 9.1%
trabecular separation (Tr. Sp.), less than OVX controls (ovariectomized (Ovx) rat [6]; [10]): 10.2%
whole body BMD (ovariectomized (Ovx) rat [7]; OVX rats, GL22 30 μmol/kg orally three times a week, 60 days post-surgery): 0.188 ± 0.004^b g/cm2
removal of Ca from bone (ovariectomized (Ovx) rat [7]; judged from BMD of chelator-treated OVX rats versus SHAM rats (Table 5)): not found to remove Ca from bone
Trabecula BMD of spine bone versus Ovx group (ovariectomized (Ovx) rat [8]; FIG. 2A, ANOVA p<0.01, 6 rats per group): significantly higher
Total BMD of spine bone versus Ovx group (ovariectomized (Ovx) rat [8]; FIG. 2B, ANOVA p<0.05, 6 rats per group): significantly higher
trabecular BMD compared with sham control (ovariectomized (Ovx) rat [8]; Ovx rats treated with chelator): 91.8%
trabecular BMD of the spine, higher than Ovx rats (ovariectomized (Ovx) rat [8]; [11]): 20%
trabecular BMD of the spine, less than sham control (ovariectomized (Ovx) rat [8]; [11]): 8.2%

Cc1c(O)c(=O)ccn1C [L1, 1,2-dimethyl-3-hydroxyl-4-pyridinone]
distribution coefficient (DC) [9]: 0.24
